ChEMBL document CHEMBL4513151, “CO-ADD screening of Institut Català d'Investigació Química (Spain) compounds”
Values after ≈ are worked out from the molar mass of the structure shown.

What was measured:
[1] = tested on: Staphylococcus aureus; assay: microbe, parasite or virus in culture; conditions: ATCC 43300, 18 h, ASSAY_TEST Inhibition of Bacterial Growth, detection method Absorption (OD600), MEDIA CAMHB, plate type 384well, NBS, CORNING #3640
Description: Antibacterial activity against Staphylococcus aureus MRSA ATCC 43300 (CO-ADD:GP_020); MIC in CAMBH media, using NBS plates, by OD(600)

[2] = tested on: HEK293; assay: cells; assay type: functional; conditions: Homo sapiens, ATCC CRL1573, HEK293; ASSAY_TEST Inhibition of Cell Viability; detection method Resazurin; Fluorescence (ex560/em590); MEDIA DMEM with 10% FBS; plate type 384well; TC; CORNING #3712; time 18 hr
[3] = tested on: Pseudomonas aeruginosa; assay: microbe, parasite or virus in culture; conditions: ATCC 27853, 18 h, ASSAY_TEST Inhibition of Bacterial Growth, detection method Absorption (OD600), MEDIA CAMHB, plate type 384well, NBS, CORNING #3640
Description: Antibacterial activity against Pseudomonas aeruginosa ATCC 27853 (CO-ADD:GN_042); MIC in CAMBH media using NBS plates, by OD(600)

[4] = tested on: Candida albicans; assay: microbe, parasite or virus in culture; conditions: ATCC 90028, ASSAY_TEST Inhibition of Fungal Growth, detection method Absorption (OD530), plate type 384well, NBS, CORNING #3640
Description: Antifungal activity against Candida albicans ATCC 90028 (CO-ADD:FG_001); MIC in YNB media using NBS plates, by OD630

[5] = tested on: Escherichia coli; assay: microbe, parasite or virus in culture; conditions: ATCC 25922, 18 h, ASSAY_TEST Inhibition of Bacterial Growth, detection method Absorption (OD600), MEDIA CAMHB, plate type 384well, NBS, CORNING #3640
Description: Antibacterial activity against Escherichia coli ATCC 25922 (CO-ADD:GN_001); MIC in CAMBH media using NBS plates, by OD(600)

[6] = tested on: Cryptococcus neoformans
Description: Antifungal activity against Cryptococcus neoformans H99 ATCC 208821 (CO-ADD:FG_002); MIC in YNB media using NBS plates, by Resazurin OD(600-570)

[7] = tested on: Acinetobacter baumannii; assay: microbe, parasite or virus in culture; conditions: ATCC 19606, 18 h, ASSAY_TEST Inhibition of Bacterial Growth, detection method Absorption (OD600), MEDIA CAMHB, plate type 384well, NBS, CORNING #3640
Description: Antibacterial activity against Acinetobacter baumannii ATCC 19606 (CO-ADD:GN_034); MIC in CAMBH media using NBS plates, by OD600

[8] = tested on: Klebsiella pneumoniae; assay: microbe, parasite or virus in culture; conditions: ATCC 700603, 18 h, ASSAY_TEST Inhibition of Bacterial Growth, detection method Absorption (OD600), MEDIA CAMHB, plate type 384well, NBS, CORNING #3640
Description: Antibacterial activity against Klebsiella pneumoniae MDR ATCC 70063 (CO-ADD:GN_003); MIC in CAMBH media using NBS plates, by OD(600)

MIC [1]: 32 µg/mL (≈ 118 µM)
MIC [3]: > 32 µg/mL
MIC [4]: > 32 µg/mL
MIC [5]: > 32 µg/mL
MIC [6]: > 32 µg/mL
MIC [7]: > 32 µg/mL
MIC [8]: > 32 µg/mL
SMILES: C[C@]12CC[C@@H](O1)[C@H]1C=C[C@H](OC(=O)c3ccccc3)[C@H]12
CC50 [2]: > 32 µg/mL
